Patent US11879848B2, “Graphene-based multi-modal sensors” (The Regents of the University of California, priority 2015, dated 2024)

System: neonatal rat cardiomyocytes (CM)
Assay: cardiomyocyte contractions registered by PMMA/AuNI/graphene strain sensor in electrophysiological chamber
Assay type: cell-based
Settings: 10 μM blebbistatin in the solution around the cells; CM culture on PMMA/AuNI/graphene; room temperature
Method: The graphene/metal nanoisland composite film structures can also be deployed in biological settings. For example, the performance of graphene/AuNI sensors in biological settings is tested by culturing neonatal rat cardiomyocytes (CM) on coverslips that are coated with a composite polymethylmethacrylate (PMMA)/AuNI/graphene film structure.
Using a specialized chamber shown in FIG. 4c and detailed below, reversible changes in the sensor signal that correlated with the spontaneous activity of cardiomyocytes can be detected, as shown in FIG. 4d.
An excitation-contraction uncoupler such as blebbistatin, that inhibits myosin cycling and stops the contractions of the cells, but not the electrical activity, can be used to distinguish whether the signal detected by the strain sensor was related to the contractile or electrical activity of the cells.
Electrophysiology. Neonatal rat ventricular cardiomyocytes were isolated using the neonatal rat cardiomyocyte isolation kit (Worthington) and cultured at 37° C. with 5% CO2. In brief, ventricles were dissected from 1 d-old Hsd:SD rats (Sprague Dawley), then digested overnight at 4° C. with trypsin. Digestion continued the following morning with collagenase for approximately 60 min at 37° C. […]

## Cc1ccc2c(c1)C(=O)C1(O)CCN(c3ccccc3)C1=N2 (stereo not shown) [blebbistatin]
  modulations of the sensor signal (contractions of the cells): No noticeable modulations of the signal
